± gives the expanded uncertainty stated by the source. One block for each compound: values may come before it.
Assays:
[1] = 101.33 kPa, Liquid
[2] = wn = mass fraction of the nth substance listed; conditions: 298.15 K, 101.3 kPa, Liquid

Structure (SMILES): CCCCCCn1cc[n+](C)c1.[Cl-] [1-hexyl-3-methylimidazolium chloride]
- viscosity ([1]; 353.15 K): 293 ± 57 mPa·s
- viscosity ([1]; 373.1 K): 87 ± 6 mPa·s
- viscosity ([1]; 393.15 K): 43 ± 3 mPa·s

- viscosity ([1]; 353.15 K): 375 ± 82 mPa·s
- viscosity ([1]; 373.1 K): 161 ± 21 mPa·s
- viscosity ([1]; 393.15 K): 81 ± 5 mPa·s
Structure (SMILES): CCCCCCCC[n+]1ccn(C)c1.[Cl-] [1-methyl-3-octylimidazolium chloride]

- viscosity ([2]; w1 = 1): 0.89 mPa·s
Structure (SMILES): O [water] + CC(=O)[O-].CCCCn1cc[n+](C)c1

- viscosity ([2]; w1 = 1): 0.92 mPa·s
Structure (SMILES): CN(C)C=O [dimethylformamide] + CC(=O)[O-].CCCCn1cc[n+](C)c1

- viscosity ([1]; 298.15 K): 31 ± 2 mPa·s
- viscosity ([1]; 353.15 K): 11 ± 2 mPa·s
- viscosity ([1]; 373.1 K): 6 ± 2 mPa·s
- viscosity ([1]; 393.15 K): 4 mPa·s
Structure (SMILES): CCCCn1cc[n+](C)c1.N#CN=C=[N-] [1-butyl-3-methylimidazolium dicyanamide]

- viscosity ([2]; w2 = 0.029): 383 ± 88 mPa·s
- viscosity ([2]; w2 = 0.031): 341 ± 74 mPa·s
- viscosity ([2]; w2 = 0.048): 236 ± 41 mPa·s
- viscosity ([2]; w2 = 0.512): 18 ± 2 mPa·s
- viscosity ([2]; w2 = 0.731): 5 ± 2 mPa·s
Structure (SMILES): CC(=O)[O-].CCCCn1cc[n+](C)c1 [1-butyl-3-methylimidazolium acetate] + O

- viscosity ([1]; 298.15 K): 383 ± 85 mPa·s
- viscosity ([1]; 353.15 K): 26 ± 2 mPa·s
- viscosity ([1]; 373.1 K): 15 ± 2 mPa·s
- viscosity ([1]; 393.15 K): 9 ± 2 mPa·s
Structure (SMILES): CC(=O)[O-].CCCCn1cc[n+](C)c1 [1-butyl-3-methylimidazolium acetate]

- viscosity ([1]; 298.15 K): 162 ± 21 mPa·s
- viscosity ([1]; 353.15 K): 17 ± 2 mPa·s
- viscosity ([1]; 373.1 K): 9 ± 2 mPa·s
- viscosity ([1]; 393.15 K): 5 ± 2 mPa·s
Structure (SMILES): CC(=O)[O-].CCn1cc[n+](C)c1 [1-ethyl-3-methylimidazolium acetate]

- viscosity ([2]; w2 = 0.089): 148 ± 19 mPa·s
- viscosity ([2]; w2 = 0.213): 27 ± 2 mPa·s
- viscosity ([2]; w2 = 0.389): 5 ± 2 mPa·s
- viscosity ([2]; w2 = 0.593): 2 mPa·s
Structure (SMILES): CC(=O)[O-].CCCCn1cc[n+](C)c1 [1-butyl-3-methylimidazolium acetate] + CC#N

- viscosity ([1]; 353.15 K): 65 ± 3 mPa·s
- viscosity ([1]; 373.1 K): 27 ± 2 mPa·s
- viscosity ([1]; 393.15 K): 13 ± 2 mPa·s
Structure (SMILES): CCn1cc[n+](C)c1.[Cl-] [1-ethyl-3-methylimidazolium chloride]

- viscosity ([1]; 353.15 K): 142 ± 17 mPa·s
- viscosity ([1]; 373.1 K): 68 ± 3 mPa·s
- viscosity ([1]; 393.15 K): 31 ± 2 mPa·s
Structure (SMILES): CCCCn1cc[n+](C)c1.[Cl-] [1-butyl-3-methylimidazolium chloride]

- viscosity ([2]; w2 = 0.023): 122 ± 13 mPa·s
- viscosity ([2]; w2 = 0.045): 81 ± 5 mPa·s
- viscosity ([2]; w2 = 0.084): 57 ± 3 mPa·s
- viscosity ([2]; w2 = 0.192): 32 ± 2 mPa·s
- viscosity ([2]; w2 = 0.374): 12 ± 2 mPa·s
- viscosity ([2]; w2 = 0.556): 4 mPa·s
Structure (SMILES): CC(=O)[O-].CCn1cc[n+](C)c1 [1-ethyl-3-methylimidazolium acetate] + O

- viscosity ([2]; w1 = 1): 0.34 mPa·s
Structure (SMILES): CC#N [acetonitrile] + CC(=O)[O-].CCCCn1cc[n+](C)c1

- viscosity ([2]; w2 = 0.062): 231 ± 40 mPa·s
- viscosity ([2]; w2 = 0.191): 54 ± 3 mPa·s
- viscosity ([2]; w2 = 0.389): 11 ± 2 mPa·s
- viscosity ([2]; w2 = 0.606): 4 mPa·s
Structure (SMILES): CC(=O)[O-].CCCCn1cc[n+](C)c1 [1-butyl-3-methylimidazolium acetate] + CN(C)C=O

- viscosity ([2]; w1 = 1): 0.89 mPa·s
Structure (SMILES): O [water] + CC(=O)[O-].CCn1cc[n+](C)c1

- viscosity ([2]; w1 = 1): 16.1 ± 2 mPa·s
Structure (SMILES): OCCO [1,2-ethanediol] + CC(=O)[O-].CCCCn1cc[n+](C)c1

- viscosity ([2]; w2 = 0.081): 291 ± 58 mPa·s
- viscosity ([2]; w2 = 0.248): 102 ± 9 mPa·s
- viscosity ([2]; w2 = 0.464): 39 ± 2 mPa·s
- viscosity ([2]; w2 = 0.678): 26 ± 2 mPa·s
Structure (SMILES): CC(=O)[O-].CCCCn1cc[n+](C)c1 [1-butyl-3-methylimidazolium acetate] + OCCO

— the NIST ThermoML archive (doi:10.1021/je1007235)
